Consider 2 compounds from patent publication US20250011295A1, “USE OF 3-ARYLPHTHALIDES AND DERIVATIVES THEREOF AS ANTI-INFLAMMATORY AGENTS” (UNIVERSIDAD DE CÁDIZ, priority 2021, published 2025).

Structures are written as SMILES.

Holding throughout (type): cell-based
The subject of data set [1] is Bv.2 microglial cell line. Kind of data set: Nitrite production inhibition (Greiss colorimetric technique) in LPS-stimulated Bv.2 cells. As to conditions: LPS 2 μg·mL^−1, compound 10 μM; for Nitrite production, LPS or cytokines + Compound (10 μM): baseline = 1.00. The method, then: (§1) Anti-inflammatory activity was measured on Bv.2 microglial cell line (innate immune system of the central nervous system), macrophages, Raw 264.7 cell line (peripheral immune system), renal tubular cell lines, MCT (renal tubule epithelials) and pancreatic beta cells, INS-1 (insulin-producing cells targeted in the process leading to diabetes mellitus). […] The activation of the inflammatory process induces the secretion of nitrites (NO2) into the medium, so the induction and modulation of the inflammatory response by 3-(4,5-dihydroxy-2-(2-ethylthio)ethylphenyl)phthalide and 3-(2,4-dihydroxyphenyl)phthalide can be determined by means of the Greiss colorimetric technique.
(§2) Tables 1 and 2 show the results of the nitrite production inhibitory activity caused by compounds II and III (10 μM), respectively, on LPS-stimulated Bv2 and Raw264.7 cell lines and on cytokine-stimulated MCT and INS-1 cell lines.

For data set [2], the system named is macrophages, Raw 264.7 cell line. Kind of data set: Nitrite production inhibition (Greiss colorimetric technique) in LPS-stimulated Raw 264.7 cells. As to conditions: LPS 2 μg·mL^−1, compound 10 μM; for Nitrite production, LPS or cytokines + Compound (10 μM): baseline = 1.00. The procedure:
as §1, §2

For data set [3], the system named is renal tubular cell lines, MCT. Kind of data set: Nitrite production inhibition (Greiss colorimetric technique) in cytokine-stimulated MCT cells. As to conditions: for % of reduction in nitrite production: cytokine cocktail 10 ng·mL^−1, compound 10 μM; for Nitrite production, LPS or cytokines + Compound (10 μM): cytokine cocktail (TNFα, IL1β, IFNγ, TFGβ) 10 ng·mL^−1, compound 10 μM, baseline = 1.00. The method, then:
as §1, §2

Data set [4] concerns pancreatic beta cells, INS-1. Kind of data set: Nitrite production inhibition (Greiss colorimetric technique) in cytokine-stimulated INS-1 cells. Particulars: for % of reduction in nitrite production: cytokine cocktail 10 ng·mL^−1, compound 10 μM; for Nitrite production, LPS or cytokines + Compound (10 μM): cytokine cocktail (TNFα, IL1β, IFNγ, TFGβ) 10 ng·mL^−1, compound 10 μM, baseline = 1. The procedure: as §1, §2

Data set [5] concerns Bv.2, Raw 264.7, MCT and INS-1 cell lines. Kind of data set: Cytotoxic effect in treated cell lines. Particulars: any of the treated cell lines.
In data set [6] the test system is Nos2. Kind of data set: Nos2 expression inhibition (qPCR) in retinal explants from BB rat. Particulars: retinal explant, 20 μM for 24 h. The method, then: (§3) Anti-inflammatory activity was determined using organotypic cultures or retinal and kidney explants from a murine model which develops type 1 or autoimmune diabetes mellitus spontaneously, i.e., BioBreeding (BB) rat. This animal model of type 1 diabetes mellitus reproduces disease progression in a manner similar to that occurring in patients. Tissues, retina, and kidney are extracted, maintaining cytoarchitecture and tissue connections of each of the organs, from BB rats that are 7 weeks old, which is the time before the presence of constant hyperglycemia, which appears around weeks 9-11 of life. A prediabetic model with active inflammatory parameters that resemble those occurring during the progression of type 1 diabetes mellitus in patients is thereby obtained. The cultured explants were treated with 3-(2,4-dihydroxyphenyl)phthalide (compound III) at a dose of 20 μM for 24 h.
(§4) Activation of the inflammatory process induces nitric oxide synthase, Nos2, gene expression, with messenger RNA quantification being determined by means of the quantitative PCR technique (qPCR), and can show inflammatory response modulation in retinal and kidney explants from an animal model with type 1 or autoimmune diabetes mellitus.

The test system of data set [7] is Nos2. The data set can be described thus: Nos2 expression inhibition (qPCR) in kidney explants from BB rat. Particulars: kidney explant, 20 μM for 24 h. The procedure: as §3, §4
A general note: Real-time PCR tracks product formation cycle by cycle.

Where [8] appears, read: 7 weeks old BB rat, untreated BB rat = 1.00.

With `CCSCCc1cc(O)c(O)cc1C1OC(=O)c2ccccc21` (stereo not shown) [Compound II, 3-(4,5-dihydroxy-2-(2-ethylthio)ethylphenyl)phthalide], the “% of reduction in nitrite production” value in data set [1] is given as 48.31%; in data set [2] it was 79.88%; in data set [3], 77.91%; in data set [4], 18.82%. Further, the “Nitrite production, LPS or cytokines + Compound (10 μM)” value in data set [1] is listed as 1.98 ± 0.203; in data set [2], 1.38 ± 0.43; in data set [3], 1.788 ± 0.29; in data set [4], 3.644 ± 0.004. Besides, the cytotoxic effect result in data set [5] (increasing doses for 24 h until the maximum concentration of 25 μM) is on record as “no cytotoxic effect was detected”.

On to `O=C1OC(c2ccc(O)cc2O)c2ccccc21` (stereo not shown) [Compound III, 3-(2,4-dihydroxyphenyl)phthalide], for which the “% of reduction in nitrite production” value in data set [1] is reported as 62.92%; in data set [2] it was 33.38%; in data set [3], 83.14%; in data set [4] it was 65.32%. The “Nitrite production, LPS or cytokines + Compound (10 μM)” value in data set [1] worked out at 3.47 ± 0.27; in data set [2], 3.60 ± 0.42; in data set [3], 1.53 ± 0.06; in data set [4] it was 1.48 ± 0.02. Moreover, in data set [5] (increasing doses for 24 h until the maximum concentration of 50 μM), the cytotoxic effect result was “no cytotoxic effect was detected”. Also, the figures for the “Nos2 expression, BB rat + 3-(2,4-dihydroxyphenyl)phthalide (20 μM)” value with Nos2 [6] (setting [8]) and in the data set with Nos2 [7] (setting [8]) were 0.482 ± 0.05 and 0.348 ± 0.05, respectively. The figures for the “% of reduction of Nos2 expression” value with Nos2 [6] (BB rat) and in the data set with Nos2 [7] (BB rat) were 51.8% and 65.2%, respectively.
